In PubChem BioAssay AID2495 (Sanford-Burnham Center for Chemical Genomics, 2010):

Molecular target: Kappa-type opioid receptor (Homo sapiens) (UniProt P41145)
Experiment: kappa opioid receptor blockade potency – cell-based, luminescence, set 2, SAR follow-up (AID 2495)
Conditions: KOR beta-arrestin recruitment, antagonist mode

Chain of Kappa-type opioid receptor (Homo sapiens) (P41145 whole entry, looked up): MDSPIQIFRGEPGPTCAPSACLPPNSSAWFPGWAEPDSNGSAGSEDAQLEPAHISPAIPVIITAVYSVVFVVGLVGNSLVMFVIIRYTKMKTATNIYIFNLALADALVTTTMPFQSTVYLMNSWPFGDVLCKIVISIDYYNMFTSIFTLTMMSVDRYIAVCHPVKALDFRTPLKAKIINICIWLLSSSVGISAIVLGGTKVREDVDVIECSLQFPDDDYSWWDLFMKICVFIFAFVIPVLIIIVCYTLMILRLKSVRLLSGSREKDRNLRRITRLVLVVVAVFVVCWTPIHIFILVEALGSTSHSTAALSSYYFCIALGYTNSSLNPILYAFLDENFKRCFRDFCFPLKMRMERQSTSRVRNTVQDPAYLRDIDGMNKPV

CCc1ccc(S(=O)(=O)NCc2ccc(C(=O)NCCN(Cc3ccccc3)C(C)C)cc2)cc1
IC50: 1120 nM
